# According to US20210076698A1, “METHODS OF MAINTAINING OR INCREASING GROWTH OR COGNITIVE DEVELOPMENT” (FONTERRA CO-OPERATIVE GROUP LIMITED, priority 2007, published 2021):
# What was measured:
# [1] = target: cholera toxin (Vibrio cholerae serotype O1, UniProt P01556); conditions: cited from earlier work
# [2] = rats (Hungund et al, 1993); cited from earlier work
# [3] = system: neuronal out growth; conditions: cited from earlier work
# [4] = system: human placenta; assay: Placental transfer trial, dual perfused human placental lobules (Example 3); type: in vitro ADME
# From the text: Dual perfused human lobules were taken from six placentae of uncomplicated term pregnancies (normal elective Caesarean patients). Maternal and fetal arterial and venous supplies were isolated, catheterised and the placenta maintained by perfusion of sterile krebs buffer (that also contains serum albumin to aid transport of lipophilic substances) at room temperature in a sterile air perfusion chamber at constant flow rate and pressure. The perfusion technique used was modified from Glance et al (1984) according to Collier et al (2004).
# Equilibration was performed for 60 min to assess physical integrity of tissue and circuits (fetal arterial pressure <40 mmHg and leakage of perfusate from fetal to maternal circuit <2 ml/h) then the maternal and fetal reservoirs replaced with fresh media containing doses of test substances. Time zero and then hourly samples are collected from all circuits and stored frozen for analysis. Metabolic viability of the preparation is assessed with samples collected hourly from maternal and fetal arteries and analysed for oxygen and carbon dioxide saturation, electrolytes and glucose consumption (Bayer 865 Blood Gas Analyzer, Bayer Diagnostics and lactate production (Hitachi 917, Roche Diagnostics). 10 μg/mL of milk-derived ganglioside mixture (GM3+GD3—isolated from G600™ precursor described above) was added to the maternal reservoir. Perfusion was conducted for up to 3 hours using a closed loop system. Samples were taken from both reservoirs at that point (t=0) and at regular time-points, snap frozen in liquid nitrogen, and subsequently assayed for GM3, GD3, and lobule viability.
# GM3 and GD3 contents of the perfusates were measured by LC-MS using a Hypersil APS2 column, normal phase acetonitrile gradient and detected in the LTQ orbitrap in negative ion full scan, as described below. Perfusate samples were “protein crashed” by addition into methanol, allowed to stand for 60 min at 4° C. before centrifugation (20,000×g). An aliquot (10-50 μL) was loaded onto an online C18 trap, washed (50% MeOH), before eluted onto a Hypersil APS2 column (Thermo Finnigan, MA, USA). Gangliosides were separated on a normal phase gradient, and detected in the LTQ Orbitrap Mass spectrometer (ThermoFinnigan, Ma, USA) in negative ion mode. The LC-MS system was calibrated using GD3 and GM3 standards purchased from Matreya (Pa, USA). Lobule viability was assessed by Glucose uptake and lactate production, measured with an Autoanalyzer.
# [5] = 10 μg/mL GM3+GD3 mixture in maternal reservoir, perfusion up to 3 hours
# Chain of cholera toxin (P01556 22-124 limits assumed): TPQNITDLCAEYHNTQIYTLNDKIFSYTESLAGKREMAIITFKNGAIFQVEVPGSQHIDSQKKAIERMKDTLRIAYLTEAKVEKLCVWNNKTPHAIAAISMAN
substance,measurement,setting,value
GM2,binding of cholera toxin,[1],negligible binding
Ganglioside GM1a,crossing of the placenta,[2],cross the placenta
9-O-acetyl GD3 [reference compound],effect on neuronal out growth,[3],promotes
ganglioside GM1,binding of cholera toxin,[1],specific
GM3,increase of foetal perfusate concentration over time,[4]; [5],approximately 6 fold
same,transfer across the human placenta,[4]; [5],evidence of transfer
same,reduction of maternal perfusate concentration,"[4]; on average, from the starting maternal concentration",half
same,maternal perfusate concentration before reduction,[4]; starting level in maternal perfusate,approximately 300 ng/ml
GD3,concentrations in foetal perfusate,[4]; LC-MS,below assay sensitivity
same,reduction in maternal concentrations,"[4]; average, all cases",25-30%
same,effect on neuronal out growth,[3],does not
GD1a,binding of cholera toxin,[1],negligible binding
